The text below walks through data of patent US6620910B1, “Peptide compounds analogues of the glucagon-like peptide-1 (7-37)” (Les Laboratoires Servier, priority 1998, dated 2003).

For data set [1], the target named is T1, GLP-1 receptor (Rattus norvegicus, UniProt P32301).
T1 construct: endogenous in cells; host or cells: RIN T3 cells (membranes in A1, whole cells in A2)
T1 sequence (P32301 22-463): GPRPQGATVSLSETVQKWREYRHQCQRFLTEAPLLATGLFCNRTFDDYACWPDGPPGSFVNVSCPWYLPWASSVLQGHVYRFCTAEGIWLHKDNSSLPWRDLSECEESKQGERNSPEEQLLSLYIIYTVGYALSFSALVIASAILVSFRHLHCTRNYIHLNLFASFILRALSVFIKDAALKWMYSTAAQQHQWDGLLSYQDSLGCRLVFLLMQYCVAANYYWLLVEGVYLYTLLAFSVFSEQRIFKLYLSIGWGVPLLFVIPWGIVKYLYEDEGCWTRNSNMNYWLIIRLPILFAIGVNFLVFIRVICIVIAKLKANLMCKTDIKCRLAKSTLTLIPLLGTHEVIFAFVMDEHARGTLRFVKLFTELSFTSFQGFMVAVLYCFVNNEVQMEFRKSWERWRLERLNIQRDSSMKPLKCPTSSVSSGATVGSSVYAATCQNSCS
The data set is described as follows: GLP-1 receptor binding study (RIN T3 membranes, [125I]-GLP-1). The settings on record: [125I]-GLP-1, 45 min at 37° C., read-out: affinity (IC50). The procedure: The GLP-1 receptor binding studies were carried out using RIN T3 membranes in a […] Tris-HCl buffer pH 7.5 containing 4% BSA and […] of bacitracin. The membranes (20 to 30 μg) are incubated in a final volume of 500 μl with approximately 15 fmol of [125I]-GLP-1 (50,000 cpm) and the cold competitor for 45 min. at 37° C. The reaction is stopped by the addition of 750 μl of cold KRP buffer, pH 7.5, containing 3% BSA. The mixture is centrifuged at 12,000×g (4° C., 5 min). The residue is resuspended in 1 ml of cold KRP buffer and sedimented by a further centrifugation, and the radioactivity is measured. The results are expressed as IC50.

Data set [2] has as its target T1, GLP-1 receptor. As to the kind of experiment: Agonist character: cyclic AMP production in RIN T3 cells. The data set is classed as cell-based. The note with it: 20 minutes at 25° C., 100% = cAMP induced by 10^−8M GLP-1. The procedure:
The agonist character of the compounds of the invention was determined by measuring the production of cyclic AMP after activation of the receptor by the different products being tested.
RIN T3 cells are cultured for 6 days and the culture medium is chanced 1 day before the experiment. The cells (3×10^5 per well) are washed twice with DMEM before the addition of 0.5 ml of DMEM containing 1% BSA, 0.2 ml of IBMX and the peptide being tested. After incubation for 20 minutes at 25° C., the intracellular cAMP is extracted, succinylated and quantified by radioimmunoassay.
The reference value of 100% corresponds to the production of cAMP induced by a concentration of 10^−8M GLP-1 and the value 0% corresponds to the basal production in the absence of GLP-1.

For data set [3], the target named is dipeptidyl peptidase IV (DPP IV) (Homo sapiens, UniProt P27487). The data set is described as follows: Metabolic stability towards dipeptidyl peptidase IV. It counts as in vitro ADME. The procedure: Each compound is dissolved in 50 mg/ml of BSA in an aqueous 1% trifluoroacetic acid solution to obtain a concentration of 1 mg/ml.
50 μl samples of the above-prepared solution containing 1 mg/ml of the peptide are added to 940 μl of 0.1M TRIS, pH 8.0. After analysis of the solution by HPLC to determine the amount of peptide, 10 μl of an aqueous solution containing 48 milli-units of dipeptidyl peptidase IV (DPP IV) are added, and the samples are analysed by HPLC at time T0 and after incubation for 10 minutes at 37° C.
The measurement results enable evaluation of the amount of peptide remaining and are expressed as a percentage in relation to T0.

Data set [4] in a line: in vitro. It counts as in vitro ADME. The settings on record: human, plasma.
Protocol: An aliqout of 50 μg/ml of a solution containing the peptide to be studied is incubated in human plasma at 37° C. An HPLC linear analysis method allows measurement of the amount of peptide at time T0, then after incubation for 5, 10, 15, 30 and 60 minutes.

dipeptidyl peptidase IV (DPP IV), sequence (P27487 whole entry, species assumed): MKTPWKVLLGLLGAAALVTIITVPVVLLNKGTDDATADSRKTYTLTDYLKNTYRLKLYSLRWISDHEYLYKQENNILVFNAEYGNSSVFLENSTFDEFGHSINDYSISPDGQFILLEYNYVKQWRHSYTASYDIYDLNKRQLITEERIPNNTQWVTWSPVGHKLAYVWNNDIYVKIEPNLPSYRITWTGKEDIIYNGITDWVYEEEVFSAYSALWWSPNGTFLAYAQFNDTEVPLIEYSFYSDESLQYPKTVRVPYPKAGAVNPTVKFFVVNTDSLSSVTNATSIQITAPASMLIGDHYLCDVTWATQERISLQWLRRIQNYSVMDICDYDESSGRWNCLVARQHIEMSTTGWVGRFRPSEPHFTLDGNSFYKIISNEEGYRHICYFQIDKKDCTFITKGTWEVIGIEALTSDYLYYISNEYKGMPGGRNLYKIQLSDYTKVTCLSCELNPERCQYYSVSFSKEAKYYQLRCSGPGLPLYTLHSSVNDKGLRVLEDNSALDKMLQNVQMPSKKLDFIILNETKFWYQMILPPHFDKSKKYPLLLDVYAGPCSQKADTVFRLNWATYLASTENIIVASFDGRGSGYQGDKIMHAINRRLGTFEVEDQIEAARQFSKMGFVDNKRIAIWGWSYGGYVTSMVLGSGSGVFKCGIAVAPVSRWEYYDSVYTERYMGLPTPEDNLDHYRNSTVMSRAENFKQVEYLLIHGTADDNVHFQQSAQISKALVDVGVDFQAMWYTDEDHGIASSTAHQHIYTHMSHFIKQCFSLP

In the case of `CC[C@H](C)[C@H](NC(=O)[C@H](Cc1ccccc1)NC(=O)[C@H](CCC(=O)O)NC(=O)[C@H](CCCCN)NC(=O)[C@H](C)NC(=O)[C@H](C)NC(=O)[C@H](CCC(N)=O)NC(=O)CNC(=O)[C@H](CCC(=O)O)NC(=O)[C@H](CC(C)C)NC(=O)[C@H](Cc1ccc(O)cc1)NC(=O)[C@H](CO)NC(=O)[C@H](CO)NC(=O)[C@@H](NC(=O)[C@H](CC(=O)O)NC(=O)[C@H](CO)NC(=O)[C@@H](NC(=O)[C@H](Cc1ccccc1)NC(=O)[C@@H](NC(=O)CNC(=O)[C@H](CCC(=O)O)NC(=O)[C@@H](C)NC(=O)[C@@H](N)Cc1c[nH]cn1)[C@@H](C)O)[C@@H](C)O)C(C)C)C(=O)N[C@@H](C)C(=O)N[C@@H](Cc1c[nH]c2ccccc12)C(=O)N[C@@H](CC(C)C)C(=O)N[C@H](C(=O)N[C@@H](CCCCN)C(=O)NCC(=O)NCC(N)=O)C(C)C` [Example 7], in data set [1], the IC50 was 0.33 nM. Moreover, the midpoint of the response in data set [2], the EC50, lay at 1.02 nM. Besides, the share remaining at 10 min, 50 μg/ml in data set [3] (isolated enzyme dpp iv, pH 8) came out at 100%. In data set [4], the share remaining at 5 min, 50 μg/ml was 100%; the amount remaining at 10 min, 50 μg/ml is 100%; the amount remaining at 0.25 h, 50 μg/ml was 100%; the share remaining at 0.5 h, 50 μg/ml is 100%. Moreover, the share remaining at 1 h, 50 μg/ml in data set [4] was determined as 100%.

With “Glucagon-Like Peptides-1 (7-37) and (7-36) NH2 [^tGLP1, reference compound]”, the “DDP IV % peptide remaining” value in data set [3] (incubation time 10 minutes, 37° C., 48 milli-units DPP IV, 0.1M TRIS pH 8.0, relative to T0) stood at 8%.
